From article PMC5701174 (Scientific Reports, 2017)

Molecular target: T1, PlaA (rPlaA, Strep-PlaA) (Legionella pneumophila, UniProt A0A378KFD4)
T1 construct: gene NCTC12000_02489
Conditions: 37 °C, 3 h; 25 ng protein in 50 µl; without ProA

T1 sequence (A0A378KFD4 20-309 limits assumed): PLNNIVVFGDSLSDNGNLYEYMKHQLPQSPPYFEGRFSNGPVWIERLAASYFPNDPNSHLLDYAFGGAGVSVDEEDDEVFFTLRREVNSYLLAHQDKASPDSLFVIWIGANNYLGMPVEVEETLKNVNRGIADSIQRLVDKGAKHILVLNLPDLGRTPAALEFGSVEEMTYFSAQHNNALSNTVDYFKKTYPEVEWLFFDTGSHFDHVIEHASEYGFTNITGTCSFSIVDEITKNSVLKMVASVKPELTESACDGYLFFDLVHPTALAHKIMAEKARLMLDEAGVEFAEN

| SMILES | free fatty acid quantification |
| --- | --- |
| CCCCCCCCCCCCCCCC(=O)OC[C@@H](O)COP(=O)(O)OCC(O)CO (some centres unmarked) [LPG, 1-mono-palmitoyllysophosphatidylglycerol] | rPlaA possessed lipase and LPLA activities, the latter especially towards LPG and LPC |
| CCCCCCCCCCCCCCCC(=O)OC[C@@H](O)COP(=O)([O-])OCC[N+](C)(C)C [LPC, 1-monopalmitoyllyso-phosphatidylcholine] | rPlaA possessed lipase and LPLA activities, the latter especially towards LPG and LPC |
